# Patent US5008252A, “Process for inhibiting herpes simplex virus-specified thymidine kinase” (The University of North Carolina at Chapel Hill, priority 1987, dated 1991)
# “Also recorded” adds a separate entry of the source.
# Assays:
# HSV-2 (333) dThd kinase = molecular target: T1, HSV-2 (333) dThd kinase (Human herpesvirus 2, UniProt P04407); experiment: dThd kinase assay in vitro; type: biochemical, HSV-2 (strain 333)
# T1 construct: kinases were extracted from dThd kinase-deficient HeLa BU cells infected with HSV-1 (strain KOS) and HSV-2(strain 333); endogenous in cells; host or cells: HeLa BU cells (dThd kinase deficient) infected with HSV-2 (strain 333)
# T1 sequence (P04407 whole entry): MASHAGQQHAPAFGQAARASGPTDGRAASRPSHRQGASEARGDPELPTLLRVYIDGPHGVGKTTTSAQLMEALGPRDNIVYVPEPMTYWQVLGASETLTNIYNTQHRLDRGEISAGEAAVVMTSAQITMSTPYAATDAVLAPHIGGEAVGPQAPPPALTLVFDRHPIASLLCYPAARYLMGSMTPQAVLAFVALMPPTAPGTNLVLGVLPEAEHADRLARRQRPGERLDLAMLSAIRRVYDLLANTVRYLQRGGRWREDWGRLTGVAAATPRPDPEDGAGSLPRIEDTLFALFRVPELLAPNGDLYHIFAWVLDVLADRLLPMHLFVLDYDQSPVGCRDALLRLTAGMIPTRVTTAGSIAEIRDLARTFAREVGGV
# From the text: Enzyme purification, enzyme assays, IC50 and Ki determinations. The cellular cytosolic dThd kinase used to determine the Ki values was isolated from KB6B cells. The HSV-1 and HSV-2dThd kinases were extracted from dThd kinase-deficient HeLa BU cells infected with HSV-1 (strain KOS) and HSV-2(strain 333), respectively. All of the dThd kinases were purified using affinity column chromatography procedures described by Lee, L. S. and Cheng, Y.-C. (J. Biol. Chem. 251:2600-2604 (1976)). The dThd kinase assay used was the same as that described by Cheng, Y.-C. & Ostrander, M. (J. Biol. Chem. 251:2605-2610 (1976)). Incubations were conducted at 37° C. for 60 min and the Ki and 50% […] concentration (IC50) values were determined as described by Cheng, Y.-C. and Prusoff, W. H. (Biochem. Pharmacol. 22:3099-3108 (1976)).
# [1] = tested on: HSV-1 (strain KOS)-infected HeLa BU cells; experiment: Virus yield assay; type: cell-based
# Description: Cell and virus growth inhibition. Cell growth inhibition and the virus yield assay were performed in accordance with the protocol described by Cheng, Y.-C., Grill, S.P., Ruth, J. and Bergstrom, D. E. (Antimicrob. Agents Chemother. 18:957-961 (1980)) with the exceptions that all studies were done using 5% dialyzed fetal bovine serum; the multiplicity of infection was 3 PFU/cell and Vero cells were used instead of CV-1 cells for titration in the virus yield assays.
# [2] = molecular target: dThd kinase from HSV-1 (KOS)-infected HeLa BU cells (Human alphaherpesvirus 1 strain KOS, UniProt P17402); experiment: Phosphate transfer assay (substrate test); type: biochemical, HSV-1 (strain KOS); conditions: 2 mM ATP
# Chain of dThd kinase from HSV-1 (KOS)-infected HeLa BU cells (P17402 whole entry, looked up): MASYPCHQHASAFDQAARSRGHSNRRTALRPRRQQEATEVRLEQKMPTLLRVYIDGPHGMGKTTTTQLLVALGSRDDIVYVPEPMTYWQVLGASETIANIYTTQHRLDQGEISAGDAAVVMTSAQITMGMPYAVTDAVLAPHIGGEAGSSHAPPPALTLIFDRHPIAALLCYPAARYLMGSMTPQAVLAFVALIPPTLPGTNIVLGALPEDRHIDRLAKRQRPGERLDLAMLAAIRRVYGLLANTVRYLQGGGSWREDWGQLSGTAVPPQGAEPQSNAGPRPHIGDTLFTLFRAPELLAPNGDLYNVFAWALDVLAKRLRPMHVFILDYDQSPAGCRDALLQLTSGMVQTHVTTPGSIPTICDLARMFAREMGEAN
# [3] = molecular target: HSV-1 SC16 dThd kinase in infected HeLa BU cells (Human herpesvirus 1, UniProt P06479); experiment: Intracellular dThd kinase activity ([14C]dThd phosphorylation); type: cell-based, HSV-1 (strain SC16); conditions: intracellular [14C]dThd phosphorylation
# Chain of HSV-1 SC16 dThd kinase in infected HeLa BU cells (P06479 whole entry, looked up): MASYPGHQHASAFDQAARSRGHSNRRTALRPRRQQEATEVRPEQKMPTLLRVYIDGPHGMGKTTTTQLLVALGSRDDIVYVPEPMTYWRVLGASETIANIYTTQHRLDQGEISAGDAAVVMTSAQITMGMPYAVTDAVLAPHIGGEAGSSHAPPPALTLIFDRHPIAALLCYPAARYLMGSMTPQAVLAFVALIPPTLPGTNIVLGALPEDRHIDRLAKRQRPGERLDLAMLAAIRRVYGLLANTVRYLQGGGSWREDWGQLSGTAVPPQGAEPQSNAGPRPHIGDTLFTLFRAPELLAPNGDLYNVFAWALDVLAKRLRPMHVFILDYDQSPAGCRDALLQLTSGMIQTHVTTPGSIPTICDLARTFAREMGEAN
# Description: Intracellular dThd kinase activity. HeLa S3 or HeLa BU cells (1.5×10^6 /ml) were mock infected or infected with HSV-1 or HSV-2at 3 PFU/cell and incubated at 37° C. for a 1 h adsorption period. The medium was then removed, and the cells were washed with growth medium and resuspended at a cell density of 5×10^5 cells/ml in RPMI 1640 medium supplemented with kanamycin (100 μg/ml) and 5% dialyzed fetal bovine serum. At 9 h post-HSV infection, [14C]dThd (0.16 μCi/ml; 1 μM dThd) and different amounts of 5'-Et-dThd were added to the medium depending on experimental conditions. At the end of the labeling period (1 h), the cells were pelleted by centrifugation, washed with phosphate-buffered-saline (PBS) and resuspended in a small volume of PBS. Aliquots were then pipetted directly onto DE81 discs which were immediately washed in 100% EtOH. The DE81 discs were washed two additional times in 100% EtOH, and then radioactivity associated with the discs was measured by scintillation counting in 5 ml of aqueous counting fluid. In this manner, total intracellular dThd kinase activity was determined from the sum of radioactive acid soluble dThd nucleotides plus the acid insoluble dTMP associated with DNA, both precipitated directly on the DE81 discs.
substance,measurement,setting,value
5'-ethynylthymidine [5'-Et-dThd],inhibition of dThd kinase activity,"HSV-2 (333) dThd kinase; 10 μM 5'-Et-dThd, purified enzyme, 100 μM [14C]dThd",25%
same,Ki,"HSV-2 (333) dThd kinase; HSV-2 333, affinity column-purified dThd kinase, ± standard deviation",0.38 µM
same,IC50,"HSV-2 (333) dThd kinase; HSV-2 333, enzyme extracts of infected HeLa BU cells, 100 μM dThd",46 µM
same,type of inhibition (kinetic studies),HSV-2 (333) dThd kinase; with respect to dThd,competitive inhibitor
same,effect on the antiviral effect of aphidicolin,[1]; 0.2 μM aphidicolin with varying concentrations of 5'-Et-dThd,significantly enhanced
same,effect on virus yield,[1]; 5'-Et-dThd by itself,no effect
same,% PFU with a 5'-Et-dThd conc. of 2.5 μM,"[1]; Table II, drug (μM as in row; None = 5'-Et-dThd alone) plus 2.5 μM 5'-Et-dThd",97%
same,% PFU with a 5'-Et-dThd conc. of 25 μM,"[1]; Table II, drug (μM as in row; None = 5'-Et-dThd alone) plus 25 μM 5'-Et-dThd",96%
same,% PFU with a 5'-Et-dThd conc. of 100 μM,"[1]; Table II, drug (μM as in row; None = 5'-Et-dThd alone) plus 100 μM 5'-Et-dThd",99%
same,%PFU with a 5'-Et-dThd conc. of 5 μM,"[1]; Table III, aphidicolin 0.2 μM (None = 5'-Et-dThd alone) plus 5 μM 5'-Et-dThd",100%
same,%PFU with a 5'-Et-dThd conc. of 20 μM,"[1]; Table III, aphidicolin 0.2 μM (None = 5'-Et-dThd alone) plus 20 μM 5'-Et-dThd",100%
same,% PFU with a 5'-Et-dThd conc. of 100 μM,"[1]; Table III, aphidicolin 0.2 μM (None = 5'-Et-dThd alone) plus 100 μM 5'-Et-dThd",100%
same,substrate for virus dThd kinase (phosphorylation of the analogue),[2],not phosphorylated; also recorded: did not serve as a substrate
same,IC50,[3],5 µM
